Measured values published in PMC9230590, “Pharmacokinetics and Tissue Distribution of Enavogliflozin in Mice and Rats” (Pharmaceutics, 2022).
Several values for one entry are separate records, joined by “and”; a condition that tells them apart may be missing. Equal values may be shown once. Read-outs that look alike come from different tables or passages of the source.

Tests used:
[1] = Pharmacokinetics after oral administration in mice; type: in vivo, ICR mice; details: for AUC(0-inf) / AUC(0-t) / Cmax / half-life / MRT / Tmax / bioavailability: ICR, mouse, plasma; for bioavailability: po; for AUC∞/D / Cmax/D: dose normalized
Procedure: Mice were fasted with water ad libitum for at least 12 h before oral administration with enavogliflozin. Fifty-four mice were randomly divided into nine groups (n = 6 per group, Table 1) and were administered an enavogliflozin solution at doses of 0.3, 1, and 3 mg/kg via oral gavage. The drug was dissolved in a mixture of 10% DMSO and 90% saline. Blood samples were collected at 0, 0.083, 0.25, 0.5, 1, 2, 4, 8, and 24 h with the same procedures described above and provided in Table 1.
(§1) Concentrations of enavogliflozin in plasma and tissue homogenate samples were analyzed using an Agilent 6430 triple quadrupole liquid chromatography-mass spectrometry (LC–MS/MS) system (Agilent, Wilmington, DE, USA) following a previously published method.
(§2) The data were expressed as the means ± standard deviation for the groups. Pharmacokinetic parameters, such as the area under the plasma concentration–time curve during the period of observation (AUClast), AUC to infinite time (AUC∞), clearance (CL), and volume of distribution at steady-state (Vd,ss), the terminal half-life (t1/2), and mean residence time (MRT) were calculated using non-compartment analysis with WinNonlin software (version 5.1; Pharsights, Cary, NC, USA). The AUC ratios were calculated by dividing the AUClast of enavogliflozin in the tissue samples by the plasma AUClast values of enavogliflozin [15].

[2] = Recovery from urine and feces over 72 h in rats; type: in vivo, Sprague Dawley (SD) rats; details: for Recovery, Feces / Recovery, Urine: parent form
Procedure: Three rats received enavogliflozin (1 mg/kg) intravenously and were returned to metabolic cages with food and water ad libitum and urine and feces samples were collected every 24 h for 72 h. Four rats received enavogliflozin (1 mg/kg) by oral gavage and were returned to their metabolic cages to collect urine and feces samples every 24 h for 72 h with the same protocols described above.
as §1
Aliquots of plasma or urine (30 µL each) and tissue homogenate (50 µL each) were added to 100 µL of aqueous solution of d4-enavogliflozin (IS, 20 ng/mL), and vigorously mixed with 500 µL MTBE for 15 min. After centrifugation at 16,000× g for 5 min, samples were kept for 1 h, at a temperature of −80 °C to freeze the aqueous layer freeze. The organic upper layer was then transferred to a clean tube and evaporated to dryness under a gentle stream of nitrogen. The dried extract was reconstituted in 150 µL of mobile phase, and a 3 µL aliquot was injected into the LC–MS/MS system. Enavogliflozin was separated on a Synergi Polar RP column (2.0 × 150 mm, 4 µm particle size; Phenomenex, Torrence, CA, USA) using a isocratic mobile phase consisting of water (15%) and methanol (85%) containing 0.1% formic acid at a flow rate of 0.25 mL/min.

[3] = Tissue distribution after single oral administration in mice; type: in vivo, ICR mice; details: single oral 1 mg/kg; for half-life: read-out: T1/2 (elimination half-life) (converted); for AUC Ratio (AUC24 h, tissue / AUC24 h, plasma): 1 mg/kg
Procedure: Thirty-six ICR mice were fasted with water ad libitum for at least 12 h before oral administration of enavogliflozin and randomly divided into six groups (n = 6 per each sampling time point) and administered with an enavogliflozin solution at a dose of 1 mg/kg via oral gavage. Blood samples (approximately 0.2 mL) were collected at 0.5, 1, 2, 4, 8, 24 h via the abdominal artery. Subsequently, whole tissues, including stomach, small intestine, large intestine, liver, kidney, brain, heart, lung, spleen, and testis, were isolated. Blood samples were centrifuged at 12,000× g for 1 min to separate plasma. Tissue samples were minced thoroughly and homogenized with four volumes of saline using a tissue grinder. An aliquot (30 µL) of plasma and aliquots (50 µL) of tissue homogenate samples were stored at −80 °C until analysis.
as §1, §2

[4] = test system: hepatocytes; set-up: method as in PMID 32932946; details: mouse hepatocytes; cited from earlier work
[5] = test system: urinary glucose excretion; set-up: method as in PMID 35395697; details: single oral administration, dose range 0.2 to 5.0 mg, healthy male volunteers; cited from earlier work

Structure (SMILES): OC[C@H]1O[C@@H](c2cc(Cc3ccc(C4CC4)cc3)c(Cl)c3c2CCO3)[C@H](O)[C@@H](O)[C@@H]1O [enavogliflozin, (2S,3R,4R,5S,6R)-2-(7-chloro-6-(4-cyclopropylbenzyl) -2,3-dihydrobenzofuran-4-yl)-6-(hydroxymethyl)tetrahydro-2H-pyran-3,4,5-triol]
- AUC(0-inf) ([1]; PO 0.3 mg/kg): 498 ± 79 ng·h/mL
- AUC(0-t) ([1]; PO 0.3 mg/kg): 488 ± 77.9 ng·h/mL
- Cmax ([1]; PO 0.3 mg/kg): 72.1 ± 10.5 ng/mL
- half-life ([1]; PO 0.3 mg/kg): 4.3 ± 0.5 h
- AUC(0-inf) ([1]; PO 1 mg/kg): 1370 ± 270 ng·h/mL
- AUC(0-t) ([1]; PO 1 mg/kg): 1360 ± 270 ng·h/mL
- Cmax ([1]; PO 1 mg/kg): 216 ± 94.1 ng/mL
- half-life ([1]; PO 1 mg/kg): 3.5 ± 0.2 h
- AUC(0-inf) ([1]; PO 3 mg/kg): 4760 ± 543 ng·h/mL
- AUC(0-t) ([1]; PO 3 mg/kg): 4740 ± 532 ng·h/mL
- Cmax ([1]; PO 3 mg/kg): 943 ± 231 ng/mL
- half-life ([1]; PO 3 mg/kg): 3.3 ± 0.4 h
- MRT ([1]; PO 0.3 mg/kg): 5.7 ± 0.5 h
- Tmax ([1]; PO 0.3 mg/kg): 1.5 ± 0.5 h
- MRT ([1]; PO 1 mg/kg): 5.7 ± 0.5 h
- MRT ([1]; PO 3 mg/kg): 5.3 ± 0.5 h
- Tmax ([1]; PO 3 mg/kg): 0.9 ± 0.3 h
- bioavailability ([1]; 0.3 mg/kg, PO 0.3 mg/kg, AUC∞,PO / AUC∞,IV, read-out: BA (absolute bioavailability)): 97.2%
- bioavailability ([1]; 1 mg/kg, PO 1 mg/kg, AUC∞,PO / AUC∞,IV, read-out: BA (absolute bioavailability)): 84.5%
- bioavailability ([1]; 3 mg/kg, PO 3 mg/kg, AUC∞,PO / AUC∞,IV, read-out: BA (absolute bioavailability)): 93.7%
- bioavailability ([1]; 3 mg/kg, range over doses 0.3, 1 and 3 mg/kg, read-out: Oral bioavailability): 84.5 to 97.2%
- AUC∞/D ([1]; PO 0.3 mg/kg): 1658.9 ± 263.5
- Cmax/D ([1]; PO 0.3 mg/kg): 240.5 ± 35.0
- AUC∞/D ([1]; PO 1 mg/kg): 1373.8 ± 269.6
- Cmax/D ([1]; PO 1 mg/kg): 216.1 ± 94.1
- AUC∞/D ([1]; PO 3 mg/kg): 1587.0 ± 181.1
- Cmax/D ([1]; PO 3 mg/kg): 314.3 ± 76.9
- Recovery in feces relative to urine ([2]; 1 mg/kg IV): about 22.7 fold
- Recovery, Feces ([2]; 1 mg/kg IV, 0–24 h): 15.2 ± 6.2 % of Dose
- Recovery, Feces ([2]; 1 mg/kg IV, 0–72 h, 1 mg/kg): 15.9 ± 5.9 % of Dose and 15.9 % of Dose
- Recovery, Urine ([2]; 1 mg/kg IV, 0–72 h, 1 mg/kg): 0.7 ± 0.2 % of Dose and 0.7 % of Dose
- Recovery, Feces ([2]; 1 mg/kg IV, 24–48 h): 0.7 ± 0.8 % of Dose
- Recovery, Urine ([2]; 1 mg/kg IV, 24–48 h): 0.1 ± 0.0 % of Dose
- Recovery, Feces ([2]; 1 mg/kg PO, 0–24 h): 44.5 ± 11.8 % of Dose
- Recovery, Urine ([2]; 1 mg/kg PO, 0–24 h): 0.3 ± 0.1 % of Dose
- Recovery, Urine ([2]; 1 mg/kg PO, 0–72 h): 0.3 ± 0.1 % of Dose
- Recovery, Feces ([2]; 1 mg/kg PO, 0–72 h, 1 mg/kg): 45.5 % of Dose
- Recovery, Feces ([2]; 1 mg/kg PO, 24–48 h): 0.9 ± 0.4 % of Dose
- Recovery, Feces ([2]; 1 mg/kg PO, 48–72 h): 0.2 ± 0.0 % of Dose
- Recovery, Urine ([2]; 1 mg/kg PO, 48–72 h): 0.3 ± 0.1 % of Dose
- dose excreted ([2]; Sprague-Dawley, rat, urine and feces, 1 mg/kg IV, 72 h, read-out: total recovery (feces + urine)): ~16.6%
- Kp ([3]; male, ICR, mouse, kidney (versus plasma), kidney, read-out: AUC Ratio (AUC24 h, tissue / AUC24 h, plasma)): 41.9
- Kp ([3]; male, ICR, mouse, kidney and intestinal tract (versus plasma), read-out: AUC ratio of kidney and intestinal tract compared with plasma): > 10
- Kp ([3]; male, ICR, mouse, large intestine (versus plasma), range over stomach, small and large intestine, read-out: plasma AUC ratio, gastrointestinal tract): 8.5 to 12.1
- Kp ([3]; male, ICR, mouse, liver (versus plasma), liver, read-out: AUC Ratio (AUC24 h, tissue / AUC24 h, plasma)): 5.8
- Kp ([3]; male, ICR, mouse, heart, read-out: AUC Ratio (AUC24 h, tissue / AUC24 h, plasma)): 1.7 ± 0.2
- half-life ([3]; male, ICR, mouse, heart): 3.6 h
- half-life ([3]; male, ICR, mouse, kidney): 29 h
- Kp ([3]; male, ICR, mouse, large intestine, read-out: AUC Ratio (AUC24 h, tissue / AUC24 h, plasma)): 8.5 ± 4.5
- half-life ([3]; male, ICR, mouse, large intestine): 3.4 h
- half-life ([3]; male, ICR, mouse, liver): 4.4 h
- Kp ([3]; male, ICR, mouse, lung, read-out: AUC Ratio (AUC24 h, tissue / AUC24 h, plasma)): 2 ± 0.2
- half-life ([3]; male, ICR, mouse, lung): 9.6 h
- AUC(0-t) ([3]; male, ICR, mouse, plasma, read-out: AUC24 h): 1360 ± 260 ng·h/mL
- half-life ([3]; male, ICR, mouse, plasma): 3.7 h
- Kp ([3]; male, ICR, mouse, small intestine, read-out: AUC Ratio (AUC24 h, tissue / AUC24 h, plasma)): 10.8 ± 3
- half-life ([3]; male, ICR, mouse, small intestine): 2.6 h
- Kp ([3]; male, ICR, mouse, spleen, read-out: AUC Ratio (AUC24 h, tissue / AUC24 h, plasma)): 0.4
- half-life ([3]; male, ICR, mouse, spleen): 2.7 h
- Kp ([3]; male, ICR, mouse, stomach, read-out: AUC Ratio (AUC24 h, tissue / AUC24 h, plasma)): 12.1 ± 7
- half-life ([3]; male, ICR, mouse, stomach): 3.4 h
- Kp ([3]; male, ICR, mouse, testis, read-out: AUC Ratio (AUC24 h, tissue / AUC24 h, plasma)): 0.5 ± 0.1
- half-life ([3]; male, ICR, mouse, testis): 22 h
- Kp ([3]; male, ICR, mouse, versus plasma, read-out: AUC ratio in stomach, small intestine, large intestine, liver): > 5
- Concentration in brain tissue ([3]; brain): not detected
- AUC24 h ([3]; heart): 2.19 ± 0.35 µg·h/g
- K (elimination constant) ([3]; heart): 0.194 h⁻¹
- AUC24 h ([3]; kidney): 54.5 ± 3.5 µg·h/g
- K (elimination constant) ([3]; kidney): 0.024 h⁻¹
- AUC Ratio (AUC24 h, tissue / AUC24 h, plasma) ([3]; kidney): 41.9 ± 7.7
- AUC24 h ([3]; large intestine): 11.1 ± 4.3 µg·h/g
- K (elimination constant) ([3]; large intestine): 0.204 h⁻¹
- AUC24 h ([3]; liver): 8.08 ± 1.1 µg·h/g
- K (elimination constant) ([3]; liver): 0.159 h⁻¹
- AUC Ratio (AUC24 h, tissue / AUC24 h, plasma) ([3]; liver): 5.8 ± 0.4
- AUC24 h ([3]; lung): 3.04 ± 0.29 µg·h/g
- K (elimination constant) ([3]; lung): 0.072 h⁻¹
- K (elimination constant) ([3]; plasma): 0.185 h⁻¹
- AUC24 h ([3]; small intestine): 14.2 ± 3.4 µg·h/g
- K (elimination constant) ([3]; small intestine): 0.267 h⁻¹
- AUC24 h ([3]; spleen): 0.58 ± 0.11 µg·h/g
- K (elimination constant) ([3]; spleen): 0.255 h⁻¹
- AUC24 h ([3]; stomach): 15.1 ± 6.4 µg·h/g
- K (elimination constant) ([3]; stomach): 0.206 h⁻¹
- AUC24 h ([3]; testis): 0.95 ± 0.15 µg·h/g
- K (elimination constant) ([3]; testis): 0.031 h⁻¹
- In vitro hepatic clearance [4]: 36.5 mL/min/kg
- urinary glucose excretion [5]: dose-dependent increase
